What was measured:
Type in all cases: ADME
Parameters in all cases: dose 2 uM, timepoint 0, 1, 2, 4, 6, 8, 12, 18, 24 hours
Details in all cases: 2 µM
[1] = (§1) The drug is tested on the gut metagenome community of MV26 with ENA study accession number: PRJEB31790 and ENA sample accession number: SAMEA5537507 for biotransformation. The drug concentrations were measured over 9 timepoints collected between 0 and 24 hours of incubation by liquid-chromatography-coupled mass spectrometry (LC–MS)
[2] = as §1, with “MV11” for “MV26”, “SAMEA5537492” for “SAMEA5537507”
[3] = as §1, with “MV10” for “MV26”, “SAMEA5537491” for “SAMEA5537507”
[4] = as §1, with “MV15” for “MV26”, “SAMEA5537496” for “SAMEA5537507”
[5] = as §1, with “MV23” for “MV26”, “SAMEA5537504” for “SAMEA5537507”
[6] = as §1, with “MV13” for “MV26”, “SAMEA5537494” for “SAMEA5537507”
[7] = as §1, with “MV18” for “MV26”, “SAMEA5537499” for “SAMEA5537507”
[8] = as §1, with “MV22” for “MV26”, “SAMEA5537503” for “SAMEA5537507”
[9] = as §1, with “MV19” for “MV26”, “SAMEA5537500” for “SAMEA5537507”
[10] = as §1, with “MV01” for “MV26”, “SAMEA5537482” for “SAMEA5537507”
[11] = as §1, with “MV12” for “MV26”, “SAMEA5537493” for “SAMEA5537507”
[12] = as §1, with “MV28” for “MV26”, “SAMEA5537509” for “SAMEA5537507”
[13] = as §1, with “MV06” for “MV26”, “SAMEA5537487” for “SAMEA5537507”
[14] = as §1, with “MV05” for “MV26”, “SAMEA5537486” for “SAMEA5537507”
[15] = as §1, with “MV21” for “MV26”, “SAMEA5537502” for “SAMEA5537507”
[16] = as §1, with “MV02” for “MV26”, “SAMEA5537483” for “SAMEA5537507”

Measured: Bacterial Biotransformation

C[C@@H]1C[C@H]2[C@@H]3CCC4=CC(=O)C=C[C@]4(C)[C@@]3(F)[C@@H](O)C[C@]2(C)[C@@]1(O)C(=O)CO [DEXAMETHASONE]
Compound metabolized: [3]
Compound NOT metabolized: all other assays above
